Test results published in US20240335402A1, “BIODEGRADABLE ANTI-INFECTIVE FORMULATIONS” (New Mexico Tech University Research Park Corporation, priority 2023, published 2024).

System: colistin (polymyxin E, or PME) resistant bacterium S. maltophilia
Assay: Spot test on lawn of colistin resistant bacterium
Assay type: cell-based
Conditions: 10 μL spotted, 37° C., 2 days

SMILES: O=C([O-])CC(O)(CC(=O)[O-])C(=O)[O-].[Na+].[Na+].[Na+] [Trisodium citrate]
- activity / kill of S. maltophilia lawn: did not work as well as CTAC
